Like-named read-outs stand apart in the source and are kept apart here.
How the values were obtained:
Type in all cases: physicochemical
[1] = Additional vacuum stability test, compounds sprayed on ITO slides with porcine brain tissue sections (Example 4a); conditions: 21 hrs, about 35° C., vacuum up to about 1.4×10^−7 mbar
Procedure: In a separate experiment, frozen porcine brain tissue was sectioned into 10 μm slices using a Leica CM1950 clinical cryostate (Leica Biosystems, Germany) at a chamber temperature of −15° C. and a head temperature of −10° C. The tissue sections were thaw-mounted onto ITO glass slides and dried for 20 min under vacuum. The ITO glass object slides with tissue sections were then sealed and stored at −80° C. until analysis. Shortly before usage, the slides were taken out from the freezer and thawed at room temperature for 20 min. under vacuum.
Photo-caged MALDI Matrix Compounds of Examples Ex. 1.1 (DMNB-2,5-DHAP), 1.7 (CNB-2,5-DHAP), 1.8 (PMNB-2,5-DHAP) and 1.9 (DMNBC-2,5 DHAP) were dissolved (Ex. 1.1: 2.5 mg/mL in standard solvent according to table 2 above; Ex.: 1.7 and 1.8:2.5 mg/mL in acetonitrile/water 7:3 (v/v)+0.1% trifluoroacetic acid; Ex. 1.9: saturated solution <2.5 mg/mL in acetonitrile/water 8:2 (v/v)+0.1% trifluoroacetic acid) and sprayed onto the ITO slides as prepared above, including to the porcine brain tissue sections thereof (see above) with a HTX M5 sprayer (HTX Technologies, USA), spray parameters: temperature of spray nozzle/tray: 50° C./25° C., Spray nozzle velocity 1000 mm/min; nozzle height: 40 mm. Twenty passes with a flow rate of 60 μL/min and a pressure of 10 psi were sprayed. Optical images of the sprayed slides were then recorded before incubation and after incubation in an ultrafleXtreme™ MALDI TOF mass spectrometer (see above) for 21 hrs at about 35° C. and a vacuum of up to about 1.4×10^−7 mbar.

[2] = Dissolution of matrix compounds when preparing test solutions (Example 4a)
Procedure: Conventional MALDI matrix compounds 2,5-dihydroxybenzoic acid (2,5-DHB); 1,5-diaminonaphthalene (1,5-DAN); 3-hydroxycoumarin (3-HC); […] (2,5-DHAP); 2-mercaptobenzothiazole (2-MBT) and dithranol, respectively, were dissolved in acetonitrile/water (1:1 v/v) at a concentration of 5 mg/mL. […] 1 μL of each resulting solution was pipetted onto an ITO glass slide. After droplets had dried in the air, a first optical image (Aperio CS2 Scanner, Leica Biosystems, Wetzlar, Germany) of the whole ITO slides at 0 min. was recorded. The slides were then incubated at about 35° C. and a vacuum between about 3.5×10^−6 mbar (t=0 min.) and about 1.4×10^−7 mbar (t=892 min.) in an ultrafleXtreme™ MALDI TOF mass spectrometer (Bruker Daltonics) equipped with a Smartbeam-II Nd:YAG laser (355 nm) for time periods of 18 min., 80 min. and 892 min., respectively. After each time interval, additional optical images were taken of the slides. For 2,5-dihydroxyacetophenone (2,5-DHAP) a similar test was performed with a diluted solution (2.5 mg/mL). […]

[3] = Solubility tests with Photo-caged MALDI Matrix Compounds in solvents/solvent systems; conditions: for solubility: thermodynamic from solid, read-out: solubility (completely dissolved at 2.5 mg/mL); for solubility in the solvents or solvent systems under review: overall rating from Table 2, Solvents 1-10
Procedure: Photo-caged MALDI Matrix Compounds according to the invention were prepared as described in Example 1 above and tested for solubility in different solvents (including solvent systems). The solvents (including solvent systems) used in this Example 2 are listed here below in Table 1:
Around 1 mg of each Photo-caged MALDI Matrix Compound was weighed into an Eppendorf tube using an analytical balance. The calculated amount of selected solvent was added into the tube to generate a solution at a maximal concentration of 2.5 mg/mL. An ultrasonic bath was used for max. 3 min. to accelerate the dissolving process.
The numbers of the compounds used in this Example 2 refer to the example numbers of Example 1 above. In Table 2 below, the mark “X” in a cell means, that the respective compound was completely dissolved in the respective solvent or solvent system in a concentration of 2.5 mg/mL.

[4] = Solvent 2: Acetonitrile/water (v/v 90/10)
[5] = Solvent 3: Acetonitrile/water (v/v 90/10) + 0.1% trifluoroacetic acid
[6] = Solvent 4: Acetonitrile/water (v/v 85/15) + 0.1% trifluoroacetic acid
[7] = Solvent 5: Methanol/water (v/v 90/10)
[8] = Solvent 6: Methanol/water (v/v 90/10) + 0.1% trifluoroacetic acid
[9] = Solvent 7: Methanol/water (v/v 90/10) + 50 mM (final conc.) NH4HCO3
[10] = Solvent 8: Methanol/water (v/v 85/15)
[11] = Solvent 9: Methanol/water (v/v 85/15) + 0.1% trifluoroacetic acid
[12] = Solvent 10: Methanol/water (v/v 85/15) + 50 mM (final conc.) NH4HCO3
[13] = organic solvent or mixture, Solvent 1: Acetonitrile
[14] = organic solvent or mixture, Solvent 2: Acetonitrile/water (v/v 90/10)
[15] = organic solvent or mixture, Solvent 3: Acetonitrile/water (v/v 90/10) + 0.1% trifluoroacetic acid
[16] = organic solvent or mixture, Solvent 4: Acetonitrile/water (v/v 85/15) + 0.1% trifluoroacetic acid
[17] = organic solvent or mixture, Solvent 5: Methanol/water (v/v 90/10)

| Structure (SMILES) | solubility (completely dissolved at 2.5 mg/mL) [3, 7] | solubility (completely dissolved at 2.5 mg/mL) [3, 8] | solubility (completely dissolved at 2.5 mg/mL) [3, 9] | solubility (completely dissolved at 2.5 mg/mL) [3, 10] | solubility (completely dissolved at 2.5 mg/mL) [3, 11] | solubility (completely dissolved at 2.5 mg/mL) [3, 12] | solubility [3, 13] | solubility [3, 14] | solubility [3, 15] | solubility [3, 16] | solubility in the solvents or solvent systems under review [3] | further results |
| --- | --- | --- | --- | --- | --- | --- | --- | --- | --- | --- | --- | --- |
| CC(=O)c1cc(O)ccc1O [2,5-DHAP, 2,5-dihydroxyacetophenone, reference compound] | – | – | – | – | – | – | – | – | – | – | – | presence on ITO slides / porcine brain tissue sections after incubation under vacuum [1]: completely evaporated |
| COc1cc(COC(=O)Oc2ccc(O)c(C(C)=O)c2)c([N+](=O)[O-])cc1OC [Ex. 1.9, 3-Acetyl-4-hydroxyphenyl (4,5-dimethoxy-2-nitrobenzyl) carbonate] | – | – | – | – | – | – | – | – | – | – | – | concentration of saturated solution ([2]; acetonitrile/water 8:2 (v/v)+0.1% trifluoroacetic acid): < 2500 µg/mL; presence on ITO slides / porcine brain tissue sections after incubation under vacuum [1]: best results |
| COc1cc(COc2cccc3c2C(=O)c2c(O)cccc2C3)c([N+](=O)[O-])cc1OC [Ex. 1.6, 1-((4,5-Dimethoxy-2-nitrobenzyl)oxy)-8-hydroxyanthracen-9(10H)-one] | ◯ | ◯ | ◯ | ◯ | ◯ | ◯ | – | – | – | – | – | solubility (completely dissolved at 2.5 mg/mL) ([3]; Solvent 1: Acetonitrile): ◯; solubility (completely dissolved at 2.5 mg/mL) [3, 4]: ◯; solubility (completely dissolved at 2.5 mg/mL) [3, 5]: ◯; solubility (completely dissolved at 2.5 mg/mL) [3, 6]: ◯ |
| COc1cc(COc2cccc(O)c2C(C)=O)c([N+](=O)[O-])cc1OC [Ex. 1.4, 1-(2-((4,5-Dimethoxy-2-nitrobenzyl)oxy)-6-hydroxyphenyl)ethan-1-one] | ◯ | ◯ | ◯ | ◯ | ◯ | ◯ | > 2500 µg/mL | > 2500 µg/mL | > 2500 µg/mL | > 2500 µg/mL | very good solubility | – |
| COc1cc(COc2cc3ccccc3oc2=O)c([N+](=O)[O-])cc1OC [Ex. 1.3, 3-((4,5-Dimethoxy-2-nitrobenzyl)oxy)-2H-chromen-2-one] | ◯ | ◯ | ◯ | ◯ | ◯ | ◯ | > 2500 µg/mL | – | – | – | – | solubility (completely dissolved at 2.5 mg/mL) [3, 4]: ◯; solubility (completely dissolved at 2.5 mg/mL) [3, 5]: ◯; solubility (completely dissolved at 2.5 mg/mL) [3, 6]: ◯ |
| COc1cc(CNc2cccc3c(N)cccc23)c([N+](=O)[O-])cc1OC [Ex. 1.2, N^1-(4,5-dimethoxy-2-nitrobenzyl)naphthalene-1,5-diamine] | – | – | – | – | – | – | > 2500 µg/mL | > 2500 µg/mL | > 2500 µg/mL | > 2500 µg/mL | excellent solubility | solubility ([3]; methanol/water (v/v 85/15) + 50 mM NH4HCO3, organic solvent or mixture, Solvent 10: Methanol/water (v/v 85/15) + 50 mM (final conc.) NH4HCO3): > 2500 µg/mL; solubility ([3]; methanol/water (v/v 90/10) + 50 mM NH4HCO3, organic solvent or mixture, Solvent 7: Methanol/water (v/v 90/10) + 50 mM (final conc.) NH4HCO3): > 2500 µg/mL; solubility [3, 17]: > 2500 µg/mL; solubility ([3]; organic solvent or mixture, Solvent 6: Methanol/water (v/v 90/10) + 0.1% trifluoroacetic acid): > 2500 µg/mL; solubility ([3]; organic solvent or mixture, Solvent 8: Methanol/water (v/v 85/15)): > 2500 µg/mL; solubility ([3]; organic solvent or mixture, Solvent 9: Methanol/water (v/v 85/15) + 0.1% trifluoroacetic acid): > 2500 µg/mL |
| Sc1nc2ccccc2s1 [2-MBT, 2-mercaptobenzothiazole, reference compound] | – | – | – | – | – | – | – | – | – | – | – | dissolution at a concentration of 5 mg/mL ([2]; acetonitrile/water (1:1 v/v), 5 mg/mL): not completely dissolved |
| COc1cc(CSc2nc3ccccc3s2)c([N+](=O)[O-])cc1OC [Ex. 1.5, 2-((4,5-Dimethoxy-2-nitrobenzyl)thio)benzo[d]thiazole] | – | ◯ | ◯ | ◯ | ◯ | ◯ | > 2500 µg/mL | > 2500 µg/mL | > 2500 µg/mL | > 2500 µg/mL | very good solubility | solubility [3, 17]: > 2500 µg/mL |

Reference: patent US20240159706A1, “MALDI-MS METHOD, PHOTO-SENSITIVE MALDI MATRIX COMPOSITE AND PHOTO-CAGED MALDI MATRIX COMPOUND FOR USE IN SAID METHOD AND RESPECTIVE USES” (SIRIUS FINE CHEMICALS SICHEM GMBH, priority 2021, published 2024)
